Assay [1] deals with PANC-1. As to the kind of experiment: Cytotoxicity against human PANC1 cells in nutrient-deprived condition at 0.01 ug/mL after 24 hrs by WST-8 assay. The assay is classed as functional, cell-based. (Tetrazolium dyes change colour on reduction, which living cells bring about.)
Assay [2] concerns PANC-1. As to the kind of experiment: Cytotoxicity against human PANC1 cells in nutrient-deprived condition assessed as cell death at 100 uM after 24 hrs by WST-8 assay. In kind it is functional.
Assay [3] has as its system PANC-1. As to the kind of experiment: Cytotoxicity against human PANC1 cells in nutrient-deprived condition assessed as cell death at 200 uM after 24 hrs by WST-8 assay. The assay is classed as functional.
In assay [4] the test system is PANC-1. As to the kind of experiment: Induction of apoptosis in human PANC1 cells in nutrient-deprived condition assessed as morphological changes at 3.125 to 12.5 uM up to 24 hrs by microscopy. The assay is classed as functional, cell-based.
Assay [5] has as its system PANC-1. As to the kind of experiment: Cytotoxicity against human PANC1 cells in nutrient-deprived condition assessed as cell death at 6.25 uM after 24 hrs by WST-8 assay. In kind it is functional.

The results in this text go back to ChEMBL document CHEMBL1833838, “Pancreatic anticancer activity of a novel geranylgeranylated coumarin derivative” (2011).

Activity calls are given as the source filed them. No cut-off for these calls is given here.

Turning to `CC(C)(OC(=O)/C=C/c1ccc(O)cc1)[C@@H]1Cc2c(ccc3ccc(=O)oc23)O1`, the result in assay [1] was Active.

With `CC(C)=CCC/C(C)=C/CC/C(C)=C/COc1cc2ccccc2oc1=O`, the result in assay [2] was Active.

On to `O=c1ccc2ccc(OC3CCCC3)cc2o1`, for which the Activity in assay [3] is 100%.

For the compound `CC(C)=CCOc1ccc2ccc(=O)oc2c1` [7-PRENYLOXYCOUMARIN], in assay [2], the Activity was 100%.

`CC(C)=CCC/C(C)=C/CC/C(C)=C/CC/C(C)=C/COc1ccc2ccc(=O)oc2c1`: the result in assay [2] and in assay [4] was Active. Also, in assay [5], the Activity is given as 100%.

Take `CC(C)=CCC/C(C)=C/COc1ccc2ccc(=O)oc2c1`: in assay [2], the result was Active.
